Assay results taken from the supplement of paper PMC10307832.

Columns and labels:
Experiment in all cases: relative viability (nuclei count vs DMSO), 5 days (fraction); higher = more cells survive
[1] = compound: CCN(CCO)CCCC(C)Nc1ccnc2cc(Cl)ccc12 [Hydroxychloroquine] + Nc1ncn([C@H]2C[C@H](O)[C@@H](CO)O2)c(=O)n1 [Decitabine] (partner 2 µM)
Method in brief: (§1)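 Relative viability divides the nuclei count in treated wells by that in vehicle wells. Lung cancer cell lines were seeded in 1536-well plates, dosed by pin tool the next day, and fixed and stained after 5 days in one step with final 0.05% Triton X-100, 1% formaldehyde and 1 ug/ml Hoechst. Dosing was a single drug or a fixed anchor-drug dose plus five library-drug doses (not always all listed) in √10 steps, and values are medians of duplicate plates imaged at 4×.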

[2] = compound: CCN(CCO)CCCC(C)Nc1ccnc2cc(Cl)ccc12 [Hydroxychloroquine] + C[C@@H](Oc1cc(-c2cnn(C3CCNCC3)c2)cnc1N)c1c(Cl)ccc(F)c1Cl [Crizotinib] (partner 1 µM)
Method in brief: as §1

[3] = compound: CCN(CCO)CCCC(C)Nc1ccnc2cc(Cl)ccc12 [Hydroxychloroquine] + CS(=O)(=O)CCNCc1ccc(-c2ccc3ncnc(Nc4ccc(OCc5cccc(F)c5)c(Cl)c4)c3c2)o1 [Lapatinib] (partner 2 µM)
Method in brief: as §1

[4] = compound: CCN(CCO)CCCC(C)Nc1ccnc2cc(Cl)ccc12 [Hydroxychloroquine] + Cc1cc(Nc2cc(N3CCN(C)CC3)nc(Sc3ccc(NC(=O)C4CC4)cc3)n2)n[nH]1 [Tozasertib] (partner 0.1 µM)
Method in brief: as §1

Row | Cell Line | relative viability ([1]; first compound 0.5 µM) | relative viability ([1]; first compound 1.581 µM) | relative viability ([1]; first compound 5 µM) | relative viability ([1]; first compound 15.81 µM) | relative viability ([1]; first compound 50 µM) | relative viability ([2]; first compound 0.5 µM) | relative viability ([2]; first compound 1.581 µM) | relative viability ([2]; first compound 5 µM) | relative viability ([2]; first compound 15.81 µM) | relative viability ([2]; first compound 50 µM) | relative viability ([3]; first compound 0.5 µM) | relative viability ([3]; first compound 1.581 µM) | relative viability ([3]; first compound 5 µM) | relative viability ([3]; first compound 15.81 µM) | relative viability ([3]; first compound 50 µM) | relative viability ([4]; first compound 0.5 µM) | relative viability ([4]; first compound 1.581 µM) | relative viability ([4]; first compound 5 µM) | relative viability ([4]; first compound 15.81 µM) | relative viability ([4]; first compound 50 µM)
1 | 201T | 0.858 | 0.834 | 0.852 | 0.864 | 0.844 | 1.02 | 1 | 1.07 | 0.978 | 0.821 | 1.05 | 1.02 | 1.02 | 1.02 | 1.05 | 0.941 | 0.954 | 0.951 | 0.966 | 1.08
2 | A-427 | 0.539 | 0.551 | 0.585 | 0.509 | 0.479 | 0.935 | 0.869 | 0.94 | 0.838 | 0.973 | 0.996 | 0.955 | 1.07 | 1.01 | 1.09 | 0.207 | 0.172 | 0.2 | 0.207 | 0.232
3 | ABC-1 | 1.15 | 1.1 | 1.09 | 1.35 | 0.906 | 1.13 | 0.981 | 1.46 | 1.2 | 1.09 | 0.987 | 1.09 | 1.13 | 1.43 | 1.23 | 0.162 | 0.136 | 0.166 | 0.172 | 0.165
4 | BEN | 0.764 | 0.649 | 0.64 | 0.75 | 0.636 | 0.848 | 0.728 | 0.863 | 0.947 | 1.01 | 0.704 | 0.553 | 0.609 | 0.707 | 0.891 | 0.606 | 0.465 | 0.551 | 0.501 | 0.622
5 | CAL-12T |  |  |  |  |  | 0.577 | 0.614 | 0.92 | 0.579 | 0.831 | 0.752 |  | 0.659 | 0.633 | 0.691 | 0.342 | 0.276 | 0.336 | 0.296 | 0.378
6 | COR-L23 | 0.451 | 0.452 | 0.397 | 0.416 | 0.534 | 0.786 | 0.573 | 0.895 | 0.868 | 0.86 | 0.681 | 0.992 | 0.992 | 1.23 | 1.21 | 0.191 | 0.218 | 0.267 | 0.209 | 0.225
7 | COR-L 105 | 0.669 | 0.542 | 0.588 | 0.583 | 0.605 | 0.871 | 0.838 | 0.901 | 0.835 | 0.79 | 0.369 | 0.37 | 0.346 | 0.318 | 0.327 | 0.353 | 0.349 | 0.376 | 0.376 | 0.333
8 | Calu-6 |  |  |  |  |  | 0.84 | 0.855 | 0.847 | 0.896 | 0.579 | 1.05 | 1.18 | 0.991 | 1.02 | 1.01 |  |  |  |  | 
9 | ChaGo-K-1 | 0.515 | 0.545 | 0.538 | 0.496 | 0.518 | 1.05 | 1.14 | 1.16 | 1.51 | 1.24 |  |  |  |  |  | 0.224 | 0.18 | 0.222 | 0.228 | 0.233
10 | EBC-1 |  |  |  |  |  | 0.196 | 0.181 | 0.181 | 0.189 | 0.189 | 0.212 | 0.183 | 0.213 | 0.225 | 0.182 |  |  |  |  | 
11 | EKVX | 0.346 | 0.308 | 0.334 | 0.407 | 0.372 | 1.01 | 0.919 | 0.814 | 0.907 | 0.963 | 0.246 | 0.181 | 0.224 | 0.168 | 0.199 | 0.401 | 0.316 | 0.38 | 0.374 | 0.494
12 | EMC-BAC-2 | 1.01 | 0.863 | 0.965 | 0.952 | 0.952 | 0.826 | 0.743 | 0.741 | 0.755 | 0.807 | 0.96 | 0.722 | 0.897 | 0.832 | 0.956 | 0.307 | 0.289 | 0.31 | 0.286 | 0.258
13 | EPLC-272H | 0.319 | 0.403 | 0.403 | 0.321 | 0.372 | 0.8 | 0.983 | 0.92 | 0.86 | 1.23 | 0.988 | 0.879 | 0.77 | 0.877 | 1.06 | 0.262 | 0.152 | 0.26 | 0.257 | 0.287
14 | H3255 | 0.612 | 0.536 | 0.593 | 0.718 | 0.592 | 0.848 | 0.979 | 0.716 | 0.841 | 0.985 | 0.272 | 0.243 | 0.205 | 0.248 | 0.202 | 0.687 | 0.558 | 0.682 | 0.796 | 0.677
15 | HARA | 0.492 | 0.539 | 0.524 | 0.534 | 0.519 | 1.13 | 1.31 | 1.05 | 1.02 | 1.04 | 0.712 | 0.731 | 0.597 | 0.765 | 0.635 | 0.221 | 0.0946 | 0.0888 | 0.11 | 0.099
